Results published in patent publication US20260092919A1, “REAGENT FOR MEASURING TYROSINE KINASE ACTIVITY, AND USE THEREOF” (HILO CO. LTD., priority 2022, published 2026).

Assays:
[1] = tested on: EGFR tyrosine kinase activity; assay: FRET efficiency (FRET/CFP) time-lapse imaging in Cos-1 cells expressing biosensor; assay type: cell-based, African green monkey
Protocol: (§1) Fluorescence images of cells were acquired using an IX81 research-grade inverted microscope (Olympus) equipped with a stage incubator (LCI), a motorized XY-stage (Chuo Precision Industrial), and a CoolSNAP Myo cooled charge-coupled device (CCD) camera (Nippon Roper) under the control of MetaMorph software (Molecular Devices Japan). […] White light from a SOLA light engine (Lumencore) was attenuated by a 20% neutral density filter and used as excitation light after interference by each filter. Images were captured using a 60× oil immersion objective lens (numerical aperture 1.40) (4×4 binning, fluorescence images: exposure time 200 msec, differential interference contrast images: exposure time 20 msec).
(§2) After 24 hours, the medium was changed to phenol red-free MEM-F12 medium, and the cells were serum-starved for 4 hours. Time-lapse fluorescence imaging was then initiated, with FRET, CFP, and DIC images acquired every 30 seconds. Cells were stimulated by adding EGF to a final concentration of 50 ng/ml at 10 minutes after starting imaging, and imaging was continued for another 50 minutes. Following background subtraction, FRET efficiency was calculated as the ratio of cellular fluorescence intensity (FRET/CFP) from each channel at each time point.

[2] = target: T1, EGFR tyrosine kinase activity in A549 cells (Homo sapiens, UniProt P00533); assay: FRET efficiency in A549 cells expressing Pickles_2.34NES; assay type: cell-based
T1 construct: pFX-Pickles_2.34NES was introduced into A549 cells and H1299 cells; endogenous in cells; host or cells: A549
Protocol: as §1, §2

[3] = tested on: EGFR tyrosine kinase activity in H1299 cells; assay: FRET efficiency in H1299 cells expressing Pickles_2.34NES
Protocol: as §1, §2

[4] = target: EGFR tyrosine kinase activity in HCC827 cells (Homo sapiens, UniProt P00533, DEL746-750); assay: FRET efficiency in HCC827 cells expressing Pickles biosensor
Protocol: as §1, §2

Row | Substance | change in FRET efficiency with HGF stimulation ([1]; Cos-1 cells expressing Pickles, HGF instead of EGF, same amount) | increase in FRET efficiency upon EGF stimulation ([1]; Cos-1 cells expressing the biosensor, EGF 50 ng/ml) [%] | change in FRET efficiency upon EGF stimulation [2] | increase in FRET efficiency upon EGF stimulation [3] | response of FRET efficiency to EGF stimulation compared to Pickles_2.34 [4]
1 | Pickles_2.34: SEQ ID NO: 6: m1Venus, CrkL residues 1-222 with D94A, cp173-ECFP FRET biosensor | did not change | 77.7 | – | – | –
2 | Pickles_2.34NES: SEQ ID NO: 7: Pickles_2.34 with the NES from protein kinase A inhibitor added to its N-terminus | – | – | increased significantly | slight | higher sensitivity
